ChEMBL document CHEMBL6078713, “Synthesis and mechanistic studies of 4-aminoquinoline-Isatin molecular hybrids and Schiff's bases as promising antimicrobial agents” (Eur J Med Chem, 2025)
Values after ≈ are worked out from the molar mass of the structure shown. Active and inactive are the calls of the source. The rule behind the calls is not given here.

Assays:
Staphylococcus aureus [1] = assay: Bacteriostatic activity against Staphylococcus aureus MTCC 902 assessed as lag phase of bacterial growth at 1 times MIC measured upto 24 hrs by absorbance based assay; format: functional, organism-based
Pseudomonas aeruginosa [2] = assay: Synergistic antibacterial activity against Pseudomonas aeruginosa MTCC 2453 assessed as inhibition of bacterial growth incubated overnight in presence of ciprofloxacin by serial dilution based spectrophotometer; format: functional
Enterococcus faecalis [3] = assay: Antibacterial activity against Enterococcus faecalis MTCC 439 assessed as diameter of zone of inhibition at 0.5 times MIC incubated overnight by disk diffusion method; format: functional
Pseudomonas aeruginosa [4] = assay: Antibacterial activity against Pseudomonas aeruginosa MTCC 2453 assessed as diameter of zone of inhibition at 2 times MIC incubated overnight by disk diffusion method; format: functional
Salmonella typhi [5] = assay: Antibacterial activity against Salmonella typhi assessed as diameter of zone of inhibition at MIC incubated overnight by disk diffusion method; format: functional, Salmonella enterica subsp. enterica serovar Typhi
Escherichia coli [6] = assay: Bacteriostatic activity against Escherichia coli MTCC 443 assessed as reduction in log phase of bacterial growth at 0.5 to 1 times MIC measured upto 24 hrs by absorbance based assay; format: functional, organism-based
Pseudomonas aeruginosa [7] = assay: Antibacterial activity against Pseudomonas aeruginosa MTCC 2453 assessed as diameter of zone of inhibition at 0.5 times MIC incubated overnight by disk diffusion method; format: functional
Salmonella typhi [8] = assay: Antibacterial activity against Salmonella typhi assessed as inhibition of bacterial growth incubated overnight by serial dilution based spectrophotometer; format: functional, Salmonella enterica subsp. enterica serovar Typhi; details: Salmonella enterica
Staphylococcus aureus [9] = assay: Antibacterial activity against Staphylococcus aureus MTCC 902 assessed as diameter of zone of inhibition at MIC incubated overnight by disk diffusion method; format: functional
Bacillus subtilis [10] = assay: Synergistic antibacterial activity against Bacillus subtilis MTCC 736 assessed as inhibition of bacterial growth incubated overnight in presence of ciprofloxacin by serial dilution based spectrophotometer; format: functional
Bacillus subtilis [11] = assay: Antibacterial activity against Bacillus subtilis MTCC 736 assessed as inhibition of bacterial growth incubated overnight by serial dilution based spectrophotometer; format: functional
Pseudomonas aeruginosa [12] = assay: Ratio of MBC for antibacterial activity against Pseudomonas aeruginosa MTCC 2453 to MIC for bactericidal activity against Pseudomonas aeruginosa MTCC 2453; format: functional
Bacillus subtilis [13] = assay: Antibacterial activity against Bacillus subtilis MTCC 736 assessed as diameter of zone of inhibition at 500 ug/ml by agar disk diffusion method; format: functional; details: read-out: DIZ
Escherichia coli [14] = assay: Antibacterial activity against Escherichia coli MTCC 443 assessed as diameter of zone of inhibition at MIC incubated overnight by disk diffusion method; format: functional
Bacillus subtilis [15] = assay: Antibacterial activity against Bacillus subtilis MTCC 736 assessed as diameter of zone of inhibition at 2 times MIC incubated overnight by disk diffusion method; format: functional
Salmonella typhi [16] = assay: Antibacterial activity against Salmonella typhi assessed as diameter of zone of inhibition at 2 times MIC incubated overnight by disk diffusion method; format: functional, Salmonella enterica subsp. enterica serovar Typhi
Pseudomonas aeruginosa [17] = assay: Bactericidal activity against Pseudomonas aeruginosa MTCC 2453 assessed as inhibition of bacterial growth incubated overnight; format: functional
Enterococcus faecalis [18] = assay: Antibacterial activity against Enterococcus faecalis MTCC 439 assessed as diameter of zone of inhibition at 2 times MIC incubated overnight by disk diffusion method; format: functional
Staphylococcus aureus [19] = assay: Bacteriostatic activity against Staphylococcus aureus MTCC 902 assessed as reduction in bacterial growth at 2 times MIC measured upto 10 hrs by absorbance based assay; format: functional, organism-based
Staphylococcus aureus [20] = assay: Antibacterial activity against Staphylococcus aureus MTCC 902 assessed as inhibition of bacterial growth incubated overnight by serial dilution based spectrophotometer; format: functional
Pseudomonas aeruginosa [21] = assay: Antibacterial activity against Pseudomonas aeruginosa MTCC 2453 assessed as diameter of zone of inhibition at 500 ug/ml by agar disk diffusion method; format: functional; details: read-out: DIZ
Pseudomonas aeruginosa [22] = assay: Antibacterial activity against Pseudomonas aeruginosa MTCC 2453 assessed as inhibition of bacterial growth incubated overnight by serial dilution based spectrophotometer; format: functional
Staphylococcus aureus [23] = assay: Antibacterial activity against Staphylococcus aureus MTCC 902 assessed as diameter of zone of inhibition at 2 times MIC incubated overnight by disk diffusion method; format: functional
Bacillus subtilis [24] = assay: Antibacterial activity against Bacillus subtilis MTCC 736 assessed as diameter of zone of inhibition at MIC incubated overnight by disk diffusion method; format: functional
Pseudomonas aeruginosa [25] = assay: Antibacterial activity against Pseudomonas aeruginosa MTCC 2453 assessed as diameter of zone of inhibition at MIC incubated overnight by disk diffusion method; format: functional
Enterococcus faecalis [26] = assay: Antibacterial activity against Enterococcus faecalis MTCC 439 assessed as diameter of zone of inhibition at MIC incubated overnight by disk diffusion method; format: functional
Bacillus subtilis [27] = assay: Antibacterial activity against Bacillus subtilis MTCC 736 assessed as diameter of zone of inhibition at 0.5 times MIC incubated overnight by disk diffusion method; format: functional
Escherichia coli [28] = assay: Antibacterial activity against Escherichia coli MTCC 443 assessed as diameter of zone of inhibition at 2 times MIC incubated overnight by disk diffusion method; format: functional
Escherichia coli [29] = assay: Antibacterial activity against Escherichia coli MTCC 443 assessed as inhibition of bacterial growth incubated overnight by serial dilution based spectrophotometer; format: functional
Staphylococcus aureus [30] = assay: Antibacterial activity against Staphylococcus aureus MTCC 902 assessed as diameter of zone of inhibition at 0.5 times MIC incubated overnight by disk diffusion method; format: functional
Enterococcus faecalis [31] = assay: Antibacterial activity against Enterococcus faecalis MTCC 439 assessed as inhibition of bacterial growth incubated overnight by serial dilution based spectrophotometer; format: functional
Escherichia coli [32] = assay: Antibacterial activity against Escherichia coli MTCC 443 assessed as diameter of zone of inhibition at 500 ug/ml by agar disk diffusion method; format: functional; details: read-out: DIZ
Escherichia coli [33] = assay: Bacteriostatic activity against Escherichia coli MTCC 443 assessed as reduction in bacterial growth at 2 times MIC measured upto 10 hrs by absorbance based assay; format: functional, organism-based
Pseudomonas aeruginosa [34] = assay: Synergistic antibacterial activity against Pseudomonas aeruginosa MTCC 2453 assessed as fractional inhibitory concentration index incubated overnight in presence of ciprofloxacin by microdilution checkerboard assay; format: functional
Escherichia coli [35] = assay: Synergistic antibacterial activity against Escherichia coli MTCC 443 assessed as fractional inhibitory concentration index incubated overnight in presence of ciprofloxacin by microdilution checkerboard assay; format: functional
Staphylococcus aureus [36] = assay: Bacteriostatic activity against Staphylococcus aureus MTCC 902 assessed as lag phase of bacterial growth at 0.5 times MIC measured upto 24 hrs by absorbance based assay; format: functional, organism-based
Bacillus subtilis [37] = assay: Bactericidal activity against Bacillus subtilis MTCC 736 assessed as inhibition of bacterial growth incubated overnight; format: functional
Bacillus subtilis [38] = assay: Synergistic antibacterial activity against Bacillus subtilis MTCC 736 assessed as fractional inhibitory concentration index incubated overnight in presence of ciprofloxacin by microdilution checkerboard assay; format: functional
Escherichia coli [39] = assay: Antibacterial activity against Escherichia coli MTCC 443 assessed as diameter of zone of inhibition at 0.5 times MIC incubated overnight by disk diffusion method; format: functional
Staphylococcus aureus [40] = assay: Antibacterial activity against Staphylococcus aureus MTCC 902 assessed as diameter of zone of inhibition at 500 ug/ml by agar disk diffusion method; format: functional; details: read-out: DIZ
Escherichia coli [41] = assay: Synergistic antibacterial activity against Escherichia coli MTCC 443 assessed as inhibition of bacterial growth incubated overnight in presence of ciprofloxacin by serial dilution based spectrophotometer; format: functional
Bacillus subtilis [42] = assay: Ratio of MBC for antibacterial activity against Bacillus subtilis MTCC 736 to MIC for bactericidal activity against Bacillus subtilis MTCC 736; format: functional
Escherichia coli [43] = assay: Bactericidal activity against Escherichia coli MTCC 443 assessed as inhibition of bacterial growth incubated overnight; format: functional

O=C1Nc2cc(Cl)ccc2/C1=N/CCNc1ccnc2cc(Cl)ccc12
Activity (Staphylococcus aureus [1]): Active | MIC (Pseudomonas aeruginosa [2]): 32 µg/mL | diameter of the inhibition zone (DIZ) (Enterococcus faecalis [3]): 8 mm | diameter of the inhibition zone (DIZ) (Pseudomonas aeruginosa [4]): 9 mm | diameter of the inhibition zone (DIZ) (Salmonella typhi [5]): 7 mm | Activity (Escherichia coli [6]): Active | diameter of the inhibition zone (DIZ) (Pseudomonas aeruginosa [7]): 8 mm | MIC (Salmonella typhi [8]): > 512 µg/mL | diameter of the inhibition zone (DIZ) (Staphylococcus aureus [9]): 8 mm | MIC (Bacillus subtilis [10]): 64 µg/mL | MIC (Bacillus subtilis [11]): 256 µg/mL (≈ 664 µM) | Ratio (Pseudomonas aeruginosa [12]): 2 | zone of inhibition at 500 µg/mL (Bacillus subtilis [13]): 11 mm | diameter of the inhibition zone (DIZ) (Escherichia coli [14]): 9 mm | diameter of the inhibition zone (DIZ) (Bacillus subtilis [15]): 10 mm | diameter of the inhibition zone (DIZ) (Salmonella typhi [16]): 7 mm | MBC (Pseudomonas aeruginosa [17]): 256 µg/mL (≈ 664 µM) | diameter of the inhibition zone (DIZ) (Enterococcus faecalis [18]): 8 mm | Activity (Staphylococcus aureus [19]): Active | MIC (Staphylococcus aureus [20]): > 512 µg/mL | zone of inhibition at 500 µg/mL (Pseudomonas aeruginosa [21]): 11 mm | MIC (Pseudomonas aeruginosa [22]): 128 µg/mL (≈ 332 µM) | diameter of the inhibition zone (DIZ) (Staphylococcus aureus [23]): 8 mm | diameter of the inhibition zone (DIZ) (Bacillus subtilis [24]): 11 mm | diameter of the inhibition zone (DIZ) (Pseudomonas aeruginosa [25]): 9 mm | diameter of the inhibition zone (DIZ) (Enterococcus faecalis [26]): 8 mm | diameter of the inhibition zone (DIZ) (Bacillus subtilis [27]): 8 mm | diameter of the inhibition zone (DIZ) (Escherichia coli [28]): 11 mm | MIC (Escherichia coli [29]): 256 µg/mL (≈ 664 µM) | diameter of the inhibition zone (DIZ) (Staphylococcus aureus [30]): 8 mm | MIC (Enterococcus faecalis [31]): > 512 µg/mL | zone of inhibition at 500 µg/mL (Escherichia coli [32]): 12 mm | Activity (Escherichia coli [33]): Active | fractional inhibitory concentration index (FICI) (Pseudomonas aeruginosa [34]): 1.25 | fractional inhibitory concentration index (FICI) (Escherichia coli [35]): 0.125 | Activity (Staphylococcus aureus [36]): inactive | MBC (Bacillus subtilis [37]): 256 µg/mL (≈ 664 µM) | fractional inhibitory concentration index (FICI) (Bacillus subtilis [38]): 0.75 | diameter of the inhibition zone (DIZ) (Escherichia coli [39]): 9 mm | zone of inhibition at 500 µg/mL (Staphylococcus aureus [40]): 8 mm | MIC (Escherichia coli [41]): 16 µg/mL | Ratio (Bacillus subtilis [42]): 1 | MBC (Escherichia coli [43]): > 512 µg/mL
